Assay results: the supplement of paper PMC10331698
± gives the standard deviation of the averaged measurements.

How the values were obtained:
Assay in all cases: level (log10 ratio to DMSO vehicle control); higher = higher biomarker level / cell amount than vehicle control
[1] = compound: FC(F)(F)C(F)(F)C(F)(F)C(F)(F)CCI [1H,1H,2H,2H-Perfluorohexyl iodide]; settings: in DMSO
Protocol: (§1)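 BioMAP Diversity Plus panel of 12 human primary cell co-culture systems (3C, 4H, LPS, SAg, BT, BF4T, BE3C, CASM3C, HDF3CGF, KF3CT, MyoF, Mphg). Compounds were added 1 h before stimulation and left for 24 h (MyoF 48 h; BT 72 h for soluble read-outs or 6 d for IgG). Biomarkers were read by ELISA, cytotoxicity by SRB, PBMC viability and proliferation by Alamar Blue. Each well value was divided by the mean of 8 DMSO control wells on the same plate and log10 transformed; duplicate blinded samples were tested at 4 concentrations.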

[2] = compound: OCC(F)(F)C(F)(F)C(F)(F)C(F)(F)C(F)(F)C(F)(F)C(F)(F)C(F)(F)CO [1H,1H,10H,10H-Perfluorodecane-1,10-diol]; settings: in DMSO
Protocol: as §1

[3] = compound: C=CC(=O)OCC(F)(F)C(F)(F)C(F)(F)C(F)(F)C(F)(F)C(F)(F)C(F)(F)C(F)F [1H,1H,9H-Perfluorononyl acrylate]; settings: in DMSO
Protocol: as §1

[4] = compound: Cc1ccc(S(=O)(=O)OCC(F)(F)C(F)(F)C(F)(F)C(F)(F)C(F)(F)C(F)F)cc1 [1H,1H,7H-Perfluoroheptyl 4-methylbenzenesulfonate]; settings: in DMSO
Protocol: as §1

[5] = compound: O=C(CC(=O)C(F)(F)C(F)(F)C(F)(F)F)c1cccs1 [(Perfluorobutyryl)-2-thenoylmethane]; settings: in DMSO
Protocol: as §1

[6] = compound: OCCC(F)(F)C(F)(F)C(F)(F)C(F)(F)C(F)(F)C(F)(F)C(F)(F)C(F)(F)F [8:2 Fluorotelomer alcohol]; settings: 6700 nM; in DMSO
Protocol: as §1

[7] = compound: O=P(O)(O)CCC(F)(F)C(F)(F)C(F)(F)C(F)(F)C(F)(F)C(F)(F)F [2-(Perfluorohexyl)ethylphosphonic acid]; settings: in DMSO
Protocol: as §1

Test System | level (log10) ([1]; 6700 nM) | level (log10) ([1]; 20000 nM) | level (log10) ([1]; 60000 nM) | level (log10) ([2]; 6700 nM) | level (log10) ([2]; 20000 nM) | level (log10) ([2]; 60000 nM) | level (log10) ([3]; 6700 nM) | level (log10) ([3]; 20000 nM) | level (log10) ([3]; 60000 nM) | level (log10) ([4]; 6700 nM) | level (log10) ([4]; 20000 nM) | level (log10) ([4]; 60000 nM) | level (log10) ([5]; 6700 nM) | level (log10) ([5]; 20000 nM) | level (log10) [6] | level (log10) ([7]; 6700 nM) | level (log10) ([7]; 20000 nM) | level (log10) ([7]; 60000 nM)
KF3CT:CD54/ICAM-1 | -0.0045 ± 0.025 | 0.016 ± 0.016 | -0.005 ± 0.027 | -0.002 ± 0.0085 | -0.018 ± 0.0057 | -0.125 | -0.0185 ± 0.005 | -0.0245 ± 0.0078 | -0.048 ± 0.0085 | 0.003 ± 0.0057 | 0.001 ± 0.0042 | 0 ± 0.0042 | -0.0335 ± 0.00071 | -0.0115 ± 0.023 | -0.0195 ± 0.0021 | -0.0015 ± 0.011 | 0.006 ± 0.028 | 0.02 ± 0.02
KF3CT:CXCL8/IL-8 | 0.0135 ± 0.044 | 0.0355 ± 0.042 | 0.0315 ± 0.047 | -0.006 ± 0.021 | 0.0055 ± 0.028 | -0.097 | -0.0015 ± 0.0092 | 0.016 ± 0.0028 | 0.012 ± 0.033 | -0.005 ± 0.0028 | -0.103 ± 0.013 | -0.04 ± 0.014 | -0.037 ± 0.027 | -0.027 ± 0.025 | 0.0035 ± 0.0035 | -0.021 ± 0.0071 | 0.002 ± 0.0014 | 0.0355 ± 0.0035
KF3CT:CXCL9/MIG | 0.004 ± 0.0099 | 0.0095 ± 0.011 | 0.0135 ± 0.033 | -0.0055 ± 0.0092 | -0.0085 ± 0.005 | -0.195 | -0.0145 ± 0.0035 | -0.007 ± 0.017 | -0.019 ± 0.0057 | -0.005 ± 0.014 | -0.0025 ± 0.012 | -0.008 ± 0.0057 | 0.0085 ± 0.0064 | 0.009 ± 0.0057 | 0.0045 ± 0.0078 | 0.0055 ± 0.0021 | -0.001 ± 0.0099 | 0.006 ± 0.0071
KF3CT:CXCL10/IP-10 | 0.012 ± 0.045 | 0.0205 ± 0.028 | 0.017 ± 0.05 | -0.006 ± 0.0042 | -0.0195 ± 0.0078 | -0.104 | -0.003 ± 0.024 | -0.01 ± 0.017 | -0.015 ± 0.0099 | -0.009 ± 0.014 | -0.0195 ± 0.0078 | -0.016 ± 0.0099 | -0.0205 ± 0.00071 | -0.018 ± 0.0014 | -0.0355 ± 0.018 | -0.009 ± 0.0057 | 0.0035 ± 0.0078 | 0.0045 ± 0.005
KF3CT:IL-1alpha | 0.0115 ± 0.037 | 0.0105 ± 0.015 | 0.051 ± 0.0071 | 0.005 ± 0.027 | -0.01 ± 0.021 | 0.109 | 0.021 ± 0.0042 | 0.023 ± 0.031 | 0.018 ± 0.0085 | -0.053 ± 0.024 | -0.01 ± 0.024 | 0.013 ± 0.038 | 0.0165 ± 0.005 | 0.009 ± 0.0028 | -0.0545 ± 0.029 | 0.0005 ± 0.0078 | 0.0225 ± 0.00071 | 0.0455 ± 0.012
KF3CT:MMP-9 | 0.0055 ± 0.0078 | 0.0035 ± 0.00071 | 0.0115 ± 0.005 | 0.005 ± 0.03 | 0.0465 ± 0.00071 | -0.197 | -0.013 ± 0.014 | -0.0085 ± 0.0035 | -0.0285 ± 0.04 | -0.014 ± 0.031 | -0.073 ± 0.025 | -0.0915 ± 0.03 | -0.107 ± 0.027 | -0.122 ± 0.012 | -0.09 ± 0.027 | -0.0305 ± 0.012 | -0.024 ± 0.0071 | -0.0565 ± 0.026
KF3CT:PAI-I | -0.0025 ± 0.023 | -0.001 ± 0.013 | -0.0225 ± 0.015 | -0.0015 ± 0.021 | 0.023 ± 0.018 | -0.341 | -0.017 | -0.023 ± 0.042 | -0.0465 ± 0.022 | -0.016 ± 0.02 | 0.0005 ± 0.0078 | -0.032 ± 0.0042 | -0.035 ± 0.0071 | -0.058 ± 0.013 | -0.0255 ± 0.018 | -0.033 ± 0.037 | -0.0505 ± 0.028 | -0.039 ± 0.025
KF3CT:SRB | -0.013 ± 0.0099 | -0.01 ± 0.013 | 0.0035 ± 0.015 | -0.0155 ± 0.015 | -0.022 ± 0.011 | -0.25 | 0.003 ± 0.0014 | -0.002 ± 0.0085 | 0.0045 ± 0.018 | -0.0215 ± 0.013 | -0.032 ± 0.011 | -0.0335 ± 0.0078 | -0.008 | -0.0105 ± 0.005 | 0.0075 ± 0.0064 | -0.0015 ± 0.0035 | -0.011 ± 0.0028 | -0.007 ± 0.013
KF3CT:TIMP-2 | -0.0185 ± 0.005 | -0.009 ± 0.018 | -0.008 ± 0.02 | -0.001 ± 0.011 | 0.011 ± 0.0099 | -0.133 | -0.0125 ± 0.046 | -0.022 ± 0.0085 | -0.042 ± 0.011 | -0.0015 ± 0.005 | 0.0025 ± 0.029 | 0.017 ± 0.021 | -0.0365 ± 0.00071 | -0.05 ± 0.016 | -0.0175 ± 0.026 | -0.0075 ± 0.012 | 0.011 | 0.013 ± 0.017
KF3CT:uPA | -0.001 ± 0.02 | 0.0045 ± 0.013 | -0.005 ± 0.0099 | 0.007 ± 0.0042 | 0.009 ± 0.0071 | -0.021 | -0.0285 ± 0.012 | -0.005 ± 0.025 | -0.0395 ± 0.013 | 0.006 ± 0.021 | -0.036 ± 0.023 | -0.0335 ± 0.022 | 0.021 ± 0.0014 | 0.0195 ± 0.005 | 0.0155 ± 0.0078 | 0.007 ± 0.0057 | 0.013 ± 0.011 | 0.015 ± 0.02
MyoF:CD106/VCAM-1 | 0.001 ± 0.0071 | -0.0135 ± 0.015 | -0.059 ± 0.014 | 0.0025 ± 0.021 | -0.0025 ± 0.025 | -0.19 | -0.0025 ± 0.0035 | -0.032 ± 0.0071 | -0.163 ± 0.0057 | 0.004 ± 0.0014 | 0.023 ± 0.0014 | 0.0135 ± 0.0021 | -0.0225 ± 0.039 | -0.0315 ± 0.013 | -0.026 ± 0.016 | 0.0025 ± 0.011 | 0.01 ± 0.0014 | -0.001
MyoF:CXCL8/IL-8 | 0.065 ± 0.1 | 0.078 ± 0.1 | 0.142 ± 0.12 | -0.0285 ± 0.0021 | -0.033 ± 0.013 | 0.025 | -0.024 ± 0.031 | -0.006 ± 0.03 | 0.0205 ± 0.013 | -0.0065 ± 0.0078 | -0.162 ± 0.022 | -0.115 ± 0.025 | -0.0155 ± 0.0078 | 0.016 ± 0.018 | 0.023 ± 0.0014 | -0.013 ± 0.013 | 0.018 ± 0.018 | 0.0795 ± 0.018
MyoF:Collagen I | -0.0005 ± 0.0035 | 0.0005 ± 0.022 | 0.0205 ± 0.042 | -0.0105 ± 0.015 | -0.0275 ± 0.013 | -0.109 | 0.0005 ± 0.023 | 0.0025 ± 0.00071 | -0.033 ± 0.028 | -0.001 ± 0.0028 | 0.019 ± 0.0099 | 0.001 ± 0.016 | -0.0255 ± 0.037 | -0.128 ± 0.033 | -0.0025 ± 0.021 | -0.0025 ± 0.005 | -0.0045 ± 0.0021 | 0.0085 ± 0.011
MyoF:Collagen III | 0.0045 ± 0.0092 | -0.007 ± 0.0014 | -0.007 ± 0.021 | -0.0305 ± 0.0092 | -0.042 ± 0.0099 | -0.378 | 0.0015 ± 0.005 | -0.029 ± 0.011 | -0.102 ± 0.0014 | -0.0075 ± 0.00071 | -0.0495 ± 0.022 | -0.056 ± 0.02 | -0.059 ± 0.018 | -0.141 ± 0.0078 | -0.0205 ± 0.021 | 0.003 ± 0.0042 | 0.009 ± 0.0014 | -0.009 ± 0.031
MyoF:Collagen IV | 0.011 ± 0.031 | 0.024 ± 0.017 | 0.021 ± 0.05 | -0.0265 ± 0.0035 | -0.013 ± 0.0071 | 0.156 | 0.02 ± 0.0014 | 0.015 ± 0.024 | 0.0035 ± 0.021 | 0.0145 ± 0.022 | 0.0265 ± 0.046 | 0.0665 ± 0.077 | 0.018 ± 0.1 | 0.534 ± 0.07 | 0.0065 ± 0.0021 | -0.038 ± 0.0071 | -0.019 ± 0.03 | -0.0405 ± 0.0021
MyoF:Decorin | 0.0085 ± 0.012 | 0.011 ± 0.025 | 0.024 ± 0.075 | 0.004 ± 0.027 | -0.0005 ± 0.042 | 0.007 | -0.014 ± 0.024 | -0.0655 ± 0.0021 | -0.065 ± 0.052 | 0.0065 ± 0.033 | 0.0045 ± 0.025 | 0.073 ± 0.05 | 0.0045 ± 0.011 | 0.0285 ± 0.022 | -0.0195 ± 0.019 | -0.0035 ± 0.023 | 0.0075 ± 0.0021 | 0.0385 ± 0.00071
